Reference: ChEMBL document CHEMBL6109142 (J Med Chem, 2025)
Calls of active or inactive are those of the source. No cut-off for these calls is given here.

Key:
[1] = molecular target: T1, Transmembrane protease serine 2 (Homo sapiens, UniProt O15393); experiment: Inhibition of recombinant TMPRSS2 (unknown origin) extracted from baculovirus infected in Sf9 cells using Boc-QAR-AMC as substrate measured after 1 hr by fluorescence based analysis
Calu-3 = experiment: Cytotoxicity against human Calu-3 cells assessed as cell viability at 10 uM measured after 72 hrs by luminescence based Cell-Titer-Glo assay; assay type: toxicity; conditions: calu-3, 72 h
SARS-CoV-2 [2] = experiment: Antiviral activity against SARS-CoV-2 pseudotyped with delta spike protein infected in human Calu-3 cells assessed as prevention of virus-like particle cellular entry at 300 nM preincubated with cells for 3 hrs followed by viral infection and measured after 72 hrs by ONE-Glo-Ex luciferase assay relative to control; assay type: functional, Severe acute respiratory syndrome coronavirus 2; conditions: time 75 hrs
SARS-CoV-2 [3] = experiment: Antiviral activity against SARS-CoV-2 EG.5.1 infected in human Calu-3 cells assessed as reduction in residual intracellular nucleocapsid value at 1 uM preincubated with cells for 3 hrs followed by viral infection and measured after 48 hrs by immunostaining based analysis; assay type: functional, organism-based; conditions: Severe acute respiratory syndrome coronavirus 2, time 51.0 hrs
[4] = molecular target: T1, Transmembrane protease serine 2; experiment: Inhibition of recombinant TMPRSS2 (unknown origin) extracted from baculovirus infected in Sf9 cells assessed as residual activity using Boc-QAR-AMC as substrate at 1 nM measured after 1 hr by fluorescence based analysis relative to control
SARS-CoV-2 [5] = experiment: Antiviral activity against SARS-CoV-2 pseudotyped with delta spike protein infected in human Calu-3 cells assessed as prevention of virus-like particle cellular entry at 300 nM preincubated with cells for 3 hrs followed by viral infection and measured after 72 hrs by ONE-Glo-Ex luciferase assay; assay type: functional, organism-based; conditions: Severe acute respiratory syndrome coronavirus 2, time 75.0 hrs
SARS-CoV-2 [6] = experiment: Antiviral activity against SARS-CoV-2 EG.5.1 infected in human Calu-3 cells preincubated with cells for 3 hrs followed by viral infection and measured after 48 hrs by immunostaining based analysis; assay type: functional, organism-based; conditions: Severe acute respiratory syndrome coronavirus 2, EG.5.1, Calu-3
[7] = Cytotoxicity against human Calu-3 cells assessed as cell viability measured after 72 hrs by luminescence based Cell-Titer-Glo assay; assay type: toxicity
SARS-CoV-2 [8] = experiment: Antiviral activity against SARS-CoV-2 JN.1 infected in human Calu-3 cells preincubated with cells for 3 hrs followed by viral infection and measured after 48 hrs by immunostaining based analysis; assay type: functional, organism-based; conditions: Severe acute respiratory syndrome coronavirus 2, JN.1, Calu-3
Procathepsin L = Procathepsin L (Homo sapiens, UniProt P07711); experiment: Inhibition of recombinant human C-terminal 6 his-tagged Cathepsin L assessed as inhibition constant using Z-LR-AMC as peptide substrate incubated for 1 hr by fluorescence based analysis
[9] = molecular target: T1, Transmembrane protease serine 2; experiment: Inhibition of recombinant das TMPRSS2 (unknown origin) extracted from baculovirus infected in Sf9 cells assessed as inhibition constant using Boc-QAR-AMC as substrate measured after 1 hr by fluorescence based analysis
[10] = molecular target: T2, Suppressor of tumorigenicity 14 protein (Homo sapiens, UniProt Q9Y5Y6); experiment: Inhibition of Matriptase (unknown origin) assessed as inhibition constant using Boc-QAR-AMC as substrate incubated for 1 hr by fluorescence based analysis
T2 sequence (Q9Y5Y6 whole entry): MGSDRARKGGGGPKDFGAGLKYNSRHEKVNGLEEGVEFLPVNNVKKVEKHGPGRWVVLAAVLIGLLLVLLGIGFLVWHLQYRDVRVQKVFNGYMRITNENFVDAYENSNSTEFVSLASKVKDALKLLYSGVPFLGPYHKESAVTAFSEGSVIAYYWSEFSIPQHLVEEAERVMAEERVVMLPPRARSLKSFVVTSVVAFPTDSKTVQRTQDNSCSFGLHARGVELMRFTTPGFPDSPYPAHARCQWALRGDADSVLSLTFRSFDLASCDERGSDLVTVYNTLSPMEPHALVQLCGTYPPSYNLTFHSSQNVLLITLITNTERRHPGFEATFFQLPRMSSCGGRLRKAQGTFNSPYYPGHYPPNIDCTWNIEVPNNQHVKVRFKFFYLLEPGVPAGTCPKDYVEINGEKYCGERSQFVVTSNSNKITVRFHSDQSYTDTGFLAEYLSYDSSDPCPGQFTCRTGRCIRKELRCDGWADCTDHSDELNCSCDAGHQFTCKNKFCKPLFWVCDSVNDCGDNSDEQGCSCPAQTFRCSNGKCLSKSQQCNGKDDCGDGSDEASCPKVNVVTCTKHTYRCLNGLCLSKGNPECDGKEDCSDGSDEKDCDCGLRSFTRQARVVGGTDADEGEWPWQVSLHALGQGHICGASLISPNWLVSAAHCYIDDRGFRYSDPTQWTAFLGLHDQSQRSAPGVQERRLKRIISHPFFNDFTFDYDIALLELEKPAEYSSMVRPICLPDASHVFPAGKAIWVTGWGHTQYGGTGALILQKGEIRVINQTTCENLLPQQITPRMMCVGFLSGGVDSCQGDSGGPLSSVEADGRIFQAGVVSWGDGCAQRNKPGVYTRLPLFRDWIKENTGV

Coagulation factor X = Coagulation factor X (Homo sapiens, UniProt P00742); experiment: Inhibition of recombinant human C-terminal 10 his-tagged FXa extracted from baculovirus infected in Sf9 cells assessed as inhibition constant using Mca-RPKPVE-Nval-WRK(Dnp)-NH2 as substrate incubated for 1 hr by fluorescence based analysis
SARS-CoV-2 [11] = experiment: Antiviral activity against SARS-CoV-2 EG.5.1 infected in human Calu-3 cells assessed as reduction in residual intracellular nucleocapsid value at 1 uM preincubated with cells for 3 hrs followed by viral infection and measured after 48 hrs by immunostaining based analysis relative to control; assay type: functional, Severe acute respiratory syndrome coronavirus 2; conditions: time 51 hrs

T1 sequence (O15393 1-255 limits assumed): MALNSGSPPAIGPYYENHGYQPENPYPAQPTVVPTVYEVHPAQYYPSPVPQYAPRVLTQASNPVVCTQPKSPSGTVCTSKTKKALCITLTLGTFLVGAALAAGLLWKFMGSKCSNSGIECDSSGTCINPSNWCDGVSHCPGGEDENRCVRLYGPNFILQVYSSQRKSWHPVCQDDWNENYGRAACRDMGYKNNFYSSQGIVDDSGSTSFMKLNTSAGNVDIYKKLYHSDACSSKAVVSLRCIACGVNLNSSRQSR
T1 sequence (O15393 256-492 limits assumed): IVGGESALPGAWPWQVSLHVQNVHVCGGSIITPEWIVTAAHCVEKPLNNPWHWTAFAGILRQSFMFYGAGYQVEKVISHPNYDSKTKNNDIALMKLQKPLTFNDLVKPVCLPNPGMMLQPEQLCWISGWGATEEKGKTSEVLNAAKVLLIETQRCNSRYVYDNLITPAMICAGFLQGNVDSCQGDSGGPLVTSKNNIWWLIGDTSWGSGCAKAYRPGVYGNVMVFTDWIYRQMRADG
Coagulation factor X, sequence (P00742 41-179 limits assumed): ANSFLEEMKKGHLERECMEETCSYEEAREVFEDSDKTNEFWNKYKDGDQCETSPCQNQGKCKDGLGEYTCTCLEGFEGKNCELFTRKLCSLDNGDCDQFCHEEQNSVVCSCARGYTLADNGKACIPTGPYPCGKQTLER
Coagulation factor X, sequence (P00742 235-488 limits assumed): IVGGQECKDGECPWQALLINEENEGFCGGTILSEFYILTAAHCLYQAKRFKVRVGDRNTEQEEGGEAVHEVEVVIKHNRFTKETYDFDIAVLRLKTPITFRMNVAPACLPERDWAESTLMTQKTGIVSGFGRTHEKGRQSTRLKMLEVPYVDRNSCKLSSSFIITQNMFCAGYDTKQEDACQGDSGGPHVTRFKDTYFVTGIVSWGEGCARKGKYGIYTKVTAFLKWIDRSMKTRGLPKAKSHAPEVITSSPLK

| SMILES | IC50 [1] | Activity (Calu-3) | Activity (SARS-CoV-2 [2]) | Activity (SARS-CoV-2 [3]) | Activity [4] | Activity (SARS-CoV-2 [5]) | EC50 (SARS-CoV-2 [6]) | CC50 at 72 h [7] | EC50 (SARS-CoV-2 [8]) | inhibition (Procathepsin L) | Ki [9] | Ki [10] | Ki (Procathepsin L) | Ki (Coagulation factor X) | Activity (SARS-CoV-2 [11]) |
| --- | --- | --- | --- | --- | --- | --- | --- | --- | --- | --- | --- | --- | --- | --- | --- |
| N=C(N)NCCCCC(=O)N[C@@H](CC(N)=O)C(=O)N[C@@H](Cc1ccccc1)C(=O)N[C@@H](CCCNC(=N)N)C(=O)c1nc2ccccc2s1 | 0.87 nM | Non-toxic | 19% | Active | 11% |  |  |  |  |  |  |  |  |  |  |
| CC(=O)N[C@@H](CCC(N)=O)C(=O)N[C@@H](Cc1ccccc1)C(=O)N[C@@H](CCCNC(=N)N)C(=O)c1nc2ccccc2[nH]1 |  |  |  |  |  | Active |  |  |  |  |  |  |  |  |  |
| N=C(N)NCCC[C@H](NC(=O)OCc1ccccc1)C(=O)N[C@@H](CCC(N)=O)C(=O)N[C@@H](Cc1ccccc1)C(=O)N[C@@H](CCCNC(=N)N)C(=O)c1nc2ccccc2s1 | 1.4 nM | Non-toxic | 33% | Active | 7% |  |  |  |  |  |  |  |  |  |  |
| CN(C)C(=O)COC(=O)Cc1ccc(OC(=O)c2ccc(NC(=N)N)cc2)cc1 [CAMOSTAT] |  |  |  |  |  |  | 201 nM | 110000 nM | 7.5 nM |  |  |  |  |  |  |
| CS(=O)(=O)N[C@@H](CCC(N)=O)C(=O)N[C@@H](Cc1ccccc1)C(=O)N[C@@H](CCCNC(=N)N)C(=O)c1nc2ccccc2s1 |  | Non-toxic | 16% | Active | 13% |  | 29.1 nM |  | 3.3 nM | inactive |  |  |  |  |  |
| N=C(N)NCCC[C@H](NC(=O)[C@H](Cc1ccccc1)NC(=O)[C@@H]1CCC(=O)NCCCC(=O)N1)C(=O)c1nc2ccccc2s1 | 1 nM | Non-toxic | 20% | Active | 3% |  |  |  |  |  |  |  |  |  |  |
| C[C@H](NC(=O)[C@H](CCC(N)=O)NC(=O)CCCCNC(=N)N)C(=O)N[C@@H](CCCNC(=N)N)C(=O)c1nc2ccccc2s1 | 2.4 nM | Non-toxic | 12% | Active | 46% |  | 11.9 nM |  | 2.8 nM | inactive | 0.53 nM | 0.16 nM |  |  |  |
| N=C(N)NCCCCC(=O)N[C@@H](CCC(N)=O)C(=O)N[C@@H](Cc1ccccc1)C(=O)N[C@@H](CCCNC(=N)N)C(=O)c1nc2ccccc2s1 | 1.4 nM | Non-toxic | 13% | Active | 16% |  |  |  |  |  |  |  |  |  |  |
| CCOC(=O)N[C@@H](CCCNC(=N)N)C(=O)N[C@@H](CCC(N)=O)C(=O)N[C@@H](Cc1ccccc1)C(=O)N[C@@H](CCCNC(=N)N)C(=O)c1nc2ccccc2s1 | 0.89 nM | Non-toxic | 17% | Active | 3% |  | 3.9 nM |  | 1.3 nM |  | 0.095 nM |  | 695 nM |  |  |
| CC(=O)N[C@@H](CCC(N)=O)C(=O)N[C@@H](CC1CCCCC1)C(=O)N[C@@H](CCCNC(=N)N)C(=O)c1nc2ccccc2s1 | 1.3 nM | Non-toxic | 13% | Active | 18% |  |  |  |  |  |  |  |  |  |  |
| CN(C)C(=O)CC[C@H](NC(=O)CCCCNC(=N)N)C(=O)N[C@@H](Cc1ccccc1)C(=O)N[C@@H](CCCNC(=N)N)C(=O)c1nc2ccccc2s1 | 0.62 nM | Non-toxic | 18% | Active | 16% |  |  |  |  |  |  |  |  |  |  |
| N=C(N)NCCCCC(=O)N[C@H](CCC(N)=O)C(=O)N[C@@H](Cc1ccccc1)C(=O)N[C@@H](CCCNC(=N)N)C(=O)c1nc2ccccc2s1 | 1.4 nM | Non-toxic | 15% | Active | 28% |  |  |  |  |  |  |  |  |  |  |
| CC(=O)N[C@@H](CCC(N)=O)C(=O)N[C@@H](Cc1ccccc1)C(=O)N[C@@H](CCCNC(=N)N)C(=O)CN1CCCCC1 |  |  |  |  |  | Active |  |  |  |  |  |  |  |  |  |
| CC(=O)N[C@@H](CCC(N)=O)C(=O)N[C@@H](Cc1ccccc1)C(=O)N[C@@H](CCCNC(=N)N)C(=O)c1nccn1C |  |  |  |  |  | Active |  |  |  |  |  |  |  |  |  |
| N=C(N)NCCCCC(=O)N[C@@H](CCC(N)=O)C(=O)N[C@@H](CO)C(=O)N[C@@H](CCCNC(=N)N)C(=O)c1nc2ccccc2s1 | 3.2 nM | Non-toxic |  | Active | 19% |  |  |  |  |  |  |  |  |  |  |
| CC(C)[C@H](NC(=O)[C@H](Cc1cscn1)NC(=O)CCc1ccccc1)C(=O)N[C@@H](CCCNC(=N)N)C(=O)c1nc2ccccc2s1 | 3 nM | Non-toxic | 15% | Active | 34% |  |  |  |  |  |  |  |  |  |  |
| C[C@H](NC(=O)CCCCNC(=N)N)C(=O)N[C@@H](Cc1ccccc1)C(=O)N[C@@H](CCCNC(=N)N)C(=O)c1nc2ccccc2s1 | 0.66 nM | Non-toxic | 14% | Active | 8% |  |  |  |  |  |  |  |  |  |  |
| N=C(N)NCCCCC(=O)N[C@@H](Cc1ccccc1)C(=O)N[C@@H](Cc1ccccc1)C(=O)N[C@@H](CCCNC(=N)N)C(=O)c1nc2ccccc2s1 | 0.66 nM | Non-toxic | 23% | Active | 10% |  |  |  |  |  |  |  |  |  |  |
| CS(=O)(=O)N[C@@H](CCC(N)=O)C(=O)N[C@@H](Cc1ccccc1)C(=O)N[C@@H](CCCNC(=N)N)C(=O)c1nccs1 | 0.87 nM | Non-toxic | 14% | Active | 11% |  | 21.7 nM | 110000 nM | 8.5 nM | inactive |  |  |  | 9.2 nM |  |
| N=C(N)NCCCCC(=O)N[C@@H](CCC(N)=O)C(=O)N[C@@H](Cc1ccccc1)C(=O)N[C@@H](CCCNC(=N)N)C(=O)c1nccs1 | 0.74 nM | Non-toxic | 20% | Active | 20% |  |  |  |  |  |  |  |  |  | 14% |
| N=C(N)NCCC[C@H](NC(=O)[C@H](Cc1ccccc1)NC(=O)[C@H](CCC(N)=O)NC(=O)CCO)C(=O)c1nc2ccccc2s1 | 1.4 nM | Non-toxic | 24% | Active | 10% |  |  |  |  |  |  |  |  |  |  |
| COCCC(=O)N[C@@H](CCC(N)=O)C(=O)N[C@@H](Cc1ccccc1)C(=O)N[C@@H](CCCNC(=N)N)C(=O)c1nc2ccccc2s1 | 0.59 nM | Non-toxic | 17% | Active | 2% |  | 4.1 nM |  | 1.5 nM | inactive |  |  |  | 102 nM |  |
